Data reported in ChEMBL document CHEMBL5352398 (Eur J Med Chem, 2022).
Active and inactive are the calls of the source. The rule behind the calls is not given here.

How the values were obtained:
[1] = Hepatotoxicity in Kunming mouse assessed as increase in AST level in serum at 50 mg/kg,po for 14 days in presence of BSO; assay type: toxicity, organism-based; conditions: in vivo, 336 h, time 14 day
[2] = Renal toxicity in Kunming mouse assessed as effect on creatinine level at 50 mg/kg,po for 14 days; assay type: organism-based; conditions: in vivo, 336 h, time 14 day
[3] = molecular target: T1, Solute carrier family 2, facilitated glucose transporter member 9 (Mus musculus, UniProt Q3T9X0); assay: Inhibition of mouse GLUT9 transfected in human HEK293 cells assessed as inhibition of uric acid induced current by cell patch-clamp assay; assay type: cell-based
T1 sequence (Q3T9X0 whole entry): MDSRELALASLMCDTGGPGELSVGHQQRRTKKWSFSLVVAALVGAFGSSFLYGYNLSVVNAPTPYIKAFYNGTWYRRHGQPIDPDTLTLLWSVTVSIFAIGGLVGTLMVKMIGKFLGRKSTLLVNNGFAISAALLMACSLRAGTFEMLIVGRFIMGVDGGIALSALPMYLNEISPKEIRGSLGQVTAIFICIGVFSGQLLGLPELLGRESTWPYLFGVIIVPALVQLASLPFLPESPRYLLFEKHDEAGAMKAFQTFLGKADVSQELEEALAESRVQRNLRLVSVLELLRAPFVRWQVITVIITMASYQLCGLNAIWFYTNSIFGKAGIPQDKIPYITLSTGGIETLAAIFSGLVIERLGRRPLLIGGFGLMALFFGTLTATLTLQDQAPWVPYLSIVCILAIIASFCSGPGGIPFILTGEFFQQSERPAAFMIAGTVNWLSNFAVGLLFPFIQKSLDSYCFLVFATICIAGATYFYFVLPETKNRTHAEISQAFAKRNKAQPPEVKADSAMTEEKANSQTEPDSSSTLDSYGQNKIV

[4] = Cmax in Sprague-Dawley rat at 5 mg/kg, po and measured upto 24 hrs by LC-MS/MS analysis; assay type: ADME, organism-based; parameters: dose 5 mg/kg, time < 24 hrs, route po; conditions: in vivo
[5] = Half life in Sprague-Dawley rat at 5 mg/kg, po and measured upto 24 hrs by LC-MS/MS analysis; assay type: ADME, organism-based; conditions: in vivo
[6] = AUC(0 to infinity) in Sprague-Dawley rat at 5 mg/kg, po and measured upto 24 hrs by LC-MS/MS analysis; assay type: ADME, organism-based; parameters: time < 24 hrs, dose 5 mg/kg, route po; conditions: in vivo
[7] = MRT (0 to infinity) in Sprague-Dawley rat at 5 mg/kg, po and measured upto 24 hrs by LC-MS/MS analysis; assay type: ADME, organism-based; conditions: in vivo
[8] = MRT (0 to infinity) in Sprague-Dawley rat at 5 mg/kg, iv and measured upto 24 hrs by LC-MS/MS analysis; assay type: ADME, organism-based; conditions: in vivo
[9] = Oral bioavailability in Sprague-Dawley rat at 5 mg/kg and measured upto 24 hrs by LCMS analysis; assay type: ADME, organism-based; conditions: in vivo
[10] = Cytotoxicity against human HepG2 cells assessed as inhibition of cell growth at 400 uM incubated for 72 hrs by MTT assay relative to control; assay type: toxicity, cell-based
[11] = Subacute toxicity in Kunming mouse assessed as animal death at 50 mg/kg,po for 14 days; assay type: organism-based; conditions: in vivo, 336 h, time 14 day
[12] = Subacute toxicity in Kunming mouse assessed as lethargy at 50 mg/kg,po for 14 days; assay type: organism-based; conditions: in vivo, 336 h, time 14 day
[13] = Subacute toxicity in Kunming mouse assessed as ruffled fur at 50 mg/kg,po for 14 days; assay type: organism-based; conditions: in vivo, 336 h, time 14 day
[14] = Renal toxicity in Kunming mouse assessed as effect on BUN level at 50 mg/kg,po for 14 days; assay type: organism-based; conditions: in vivo, 336 h, time 14 day
[15] = Hepatotoxicity in Kunming mouse assessed as reduction in serum GSH level at 50 mg/kg, ip and incubated for 1 hr relative to control; assay type: toxicity, organism-based; parameters: scale not given: the % may be the effect or the level left; conditions: in vivo
[16] = Hepatotoxicity in Kunming mouse assessed as reduction in serum GSH level at 50 mg/kg, ip and incubated for 12 hrs; assay type: toxicity, organism-based; conditions: in vivo
[17] = Toxicity in Kunming mouse assessed as steatosis in liver at 50 mg/kg, po and measured after 14 days by HE staining based microscopy; assay type: organism-based; conditions: in vivo, 336 h, time 14 day
[18] = Toxicity in Kunming mouse assessed as appearance of normal tubular structure in kidney at 50 mg/kg, po administered and measured after 14 days by HE staining; assay type: organism-based; conditions: in vivo, 336 h, time 14 day
[19] = Toxicity in Kunming mouse assessed as appearance of normal glomerulus cells in kidney at 50 mg/kg, po administered and measured after 14 days by HE staining; assay type: organism-based; conditions: in vivo, 336 h, time 14 day
Mus musculus = assay: Anti-hyperuricemic activity against potassium oxonate induced hyperuricemia in Kunming mouse model assessed as decrease in serum urate level at 4 mg/kg, po and measured after 3 hrs; assay type: functional, organism-based
[20] = Toxicity in Kunming mouse assessed as mild inflammatory infiltration in liver at 50 mg/kg, po and measured after 14 days by HE staining based microscopy; assay type: organism-based; conditions: in vivo, 336 h, time 14 day
[21] = Toxicity in Kunming mouse assessed as dilated vacuolization in liver at 50 mg/kg, po and measured after 14 days by HE staining based microscopy; assay type: organism-based; conditions: in vivo, 336 h, time 14 day
[22] = Toxicity in Kunming mouse assessed as inflammatory infiltration in kidney at 50 mg/kg, po administered and measured after 14 days by HE staining; assay type: organism-based; conditions: in vivo, 336 h, time 14 day

CCc1oc2ccccc2c1C(=O)c1cc(Br)c(O)c(Br)c1 [BENZBROMARONE]
Activity [1]: Non-Toxic | Activity [2]: Non-Toxic | IC50 [3]: > 20 µM | Cmax [4]: 4250 ng/mL | half-life [5]: 1.79 h | AUC(0-inf) [6]: 11100 ng·h/mL | MRT inf [7]: 3.48 h | MRT inf [8]: 3.75 h | bioavailability [9]: 36.1% | inhibition at 72 h, 400 µM [10]: 65.7% | Activity [11]: Non-Toxic | Activity [12]: Non-Toxic | Activity [13]: Non-Toxic | Activity [14]: Non-Toxic | Activity [15]: 74.29% | Activity [16]: Toxic | Activity [17]: Non-Toxic | Activity [18]: Non-Toxic | Activity [19]: Non-Toxic | Activity (Mus musculus): Active | Activity [20]: Toxic | Activity [21]: Toxic | Activity [22]: Toxic
